Measurements taken from publication PMC3612716 (British Journal of Clinical Pharmacology, 2012).

Key:
[1] = tested on: patients with type 2 diabetes / healthy subjects; settings: previous findings; cited from earlier work
[2] = tested on: healthy subjects; experiment: Safety and tolerability; format: in vivo, human; settings: ITT population, by treatment
[3] = tested on: healthy subjects; experiment: Thorough QT study: ECG; settings: positive control

Molecule	changes in QTc at therapeutic concentrations [1]	subjects experiencing adverse events [2] [%]	LS mean ΔΔQTcP (two-sided 90% CI) ([3]; 1 h following single 400 mg oral dose)	LS mean ΔΔQTcP (two-sided 90% CI) ([3]; 2 h following single 400 mg oral dose)	LS mean ΔΔQTcP (two-sided 90% CI) ([3]; 3 h following single 400 mg oral dose)
liraglutide	no clinically meaningful changes in QTc				
COc1c(N2C[C@@H]3CCCN[C@@H]3C2)c(F)cc2c(=O)c(C(=O)O)cn(C3CC3)c12 [moxifloxacin]		23	5.47 (2.82, 8.12) ms	10.56 (8.46, 12.67) ms	10.93 (8.71, 13.13)
